Measured values reported in ChEMBL document CHEMBL1135380, “Synthesis and structure-activity relationship of 2-(aminoalkyl)-2,3,3a,8-tetrahydrodibenzo[c,f]isoxazolo[2,3-a]azepine derivatives: a novel series of 5-HT(2A/2C) receptor antagonists. Part 1” (Bioorg Med Chem Lett, 2002).

Biological target: T1, Alpha-2C adrenergic receptor (Homo sapiens, UniProt P18825)
T1 sequence (P18825 whole entry): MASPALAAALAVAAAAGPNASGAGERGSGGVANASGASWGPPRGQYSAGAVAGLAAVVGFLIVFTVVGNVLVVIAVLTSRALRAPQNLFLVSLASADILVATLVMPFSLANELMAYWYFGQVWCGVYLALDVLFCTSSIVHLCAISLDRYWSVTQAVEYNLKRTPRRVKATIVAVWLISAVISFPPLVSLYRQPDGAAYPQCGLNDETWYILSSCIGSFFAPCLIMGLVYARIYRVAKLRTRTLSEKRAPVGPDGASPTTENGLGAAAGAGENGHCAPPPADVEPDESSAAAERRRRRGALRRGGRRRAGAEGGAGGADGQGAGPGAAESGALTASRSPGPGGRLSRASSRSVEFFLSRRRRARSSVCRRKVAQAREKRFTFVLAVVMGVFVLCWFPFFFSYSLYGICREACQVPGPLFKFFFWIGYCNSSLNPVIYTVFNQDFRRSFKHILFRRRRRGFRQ
Assay: Binding affinity for human cloned Alpha-2C adrenergic receptor
Conditions: not given

SMILES | IC50 [µM]
CN1CCN2c3ccccc3Cc3ccccc3C2C1 (configuration not stated) [MIANSERIN] | 0.0427
CN(C)CCC1CC2c3ccccc3Cc3ccccc3N2O1 (configuration not stated) | > 1

Biological target: T2, 5-hydroxytryptamine receptor 1A (Homo sapiens, UniProt P08908)
T2 sequence (P08908 whole entry): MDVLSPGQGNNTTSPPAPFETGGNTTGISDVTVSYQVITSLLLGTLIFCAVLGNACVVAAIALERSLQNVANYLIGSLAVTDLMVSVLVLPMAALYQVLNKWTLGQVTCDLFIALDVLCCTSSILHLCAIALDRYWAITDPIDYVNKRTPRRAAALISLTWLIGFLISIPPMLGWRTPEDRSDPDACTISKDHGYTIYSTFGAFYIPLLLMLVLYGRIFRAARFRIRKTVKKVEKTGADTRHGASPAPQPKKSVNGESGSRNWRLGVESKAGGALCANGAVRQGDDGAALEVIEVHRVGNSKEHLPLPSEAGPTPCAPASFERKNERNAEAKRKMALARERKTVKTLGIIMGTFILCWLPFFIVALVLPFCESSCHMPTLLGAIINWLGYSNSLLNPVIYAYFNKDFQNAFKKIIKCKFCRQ
Assay: Binding affinity for human cloned 5-hydroxytryptamine 1A receptor
Conditions: not given

SMILES | IC50 [µM]
CN(C)CCC1CC2c3ccccc3Cc3ccccc3N2O1 (configuration not stated) | > 1

Biological target: D(2) dopamine receptor (Homo sapiens, UniProt P14416)
Assay: Binding affinity for human cloned Dopamine receptor D2L
Conditions: not given

Chain of D(2) dopamine receptor (Homo sapiens, UniProt P14416) (P14416 whole entry): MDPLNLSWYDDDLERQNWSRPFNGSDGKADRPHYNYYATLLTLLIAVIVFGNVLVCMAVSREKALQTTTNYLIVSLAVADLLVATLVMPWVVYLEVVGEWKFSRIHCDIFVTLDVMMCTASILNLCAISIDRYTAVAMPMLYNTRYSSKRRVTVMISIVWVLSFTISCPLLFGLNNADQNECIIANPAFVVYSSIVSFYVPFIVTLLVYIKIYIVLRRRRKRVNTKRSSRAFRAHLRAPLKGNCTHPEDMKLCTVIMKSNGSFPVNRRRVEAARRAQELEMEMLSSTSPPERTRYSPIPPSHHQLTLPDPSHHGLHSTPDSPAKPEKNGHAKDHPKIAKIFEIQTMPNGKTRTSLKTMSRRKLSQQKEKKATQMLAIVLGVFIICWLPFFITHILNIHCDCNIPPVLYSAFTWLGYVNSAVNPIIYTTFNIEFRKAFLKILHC

SMILES | IC50 [µM]
CN1CCN2c3ccccc3Cc3ccccc3C2C1 (configuration not stated) [MIANSERIN] | 7.08
CN(C)CCC1CC2c3ccccc3Cc3ccccc3N2O1 (configuration not stated) | 9.55

Biological target: 5-hydroxytryptamine receptor 1D (Homo sapiens, UniProt P28221)
Assay: Binding affinity for human cloned 5-hydroxytryptamine 1D receptor
Conditions: not given

Chain of 5-hydroxytryptamine receptor 1D (P28221 whole entry): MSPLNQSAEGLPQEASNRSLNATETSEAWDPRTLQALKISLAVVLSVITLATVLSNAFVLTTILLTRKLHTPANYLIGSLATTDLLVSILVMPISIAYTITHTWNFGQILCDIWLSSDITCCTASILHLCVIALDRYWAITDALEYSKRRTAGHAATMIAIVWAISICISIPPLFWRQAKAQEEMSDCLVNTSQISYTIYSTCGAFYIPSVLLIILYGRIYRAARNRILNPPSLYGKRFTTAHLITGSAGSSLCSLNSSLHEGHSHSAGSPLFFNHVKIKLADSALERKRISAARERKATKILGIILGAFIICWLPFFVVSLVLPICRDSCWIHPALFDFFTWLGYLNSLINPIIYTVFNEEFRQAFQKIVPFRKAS

SMILES | IC50 [µM]
CN1CCN2c3ccccc3Cc3ccccc3C2C1 (configuration not stated) [MIANSERIN] | 0.38
CN(C)CCC1CC2c3ccccc3Cc3ccccc3N2O1 (configuration not stated) | > 1

Biological target: T3, Alpha-1A adrenergic receptor (Homo sapiens, UniProt P35348)
T3 sequence (P35348 whole entry): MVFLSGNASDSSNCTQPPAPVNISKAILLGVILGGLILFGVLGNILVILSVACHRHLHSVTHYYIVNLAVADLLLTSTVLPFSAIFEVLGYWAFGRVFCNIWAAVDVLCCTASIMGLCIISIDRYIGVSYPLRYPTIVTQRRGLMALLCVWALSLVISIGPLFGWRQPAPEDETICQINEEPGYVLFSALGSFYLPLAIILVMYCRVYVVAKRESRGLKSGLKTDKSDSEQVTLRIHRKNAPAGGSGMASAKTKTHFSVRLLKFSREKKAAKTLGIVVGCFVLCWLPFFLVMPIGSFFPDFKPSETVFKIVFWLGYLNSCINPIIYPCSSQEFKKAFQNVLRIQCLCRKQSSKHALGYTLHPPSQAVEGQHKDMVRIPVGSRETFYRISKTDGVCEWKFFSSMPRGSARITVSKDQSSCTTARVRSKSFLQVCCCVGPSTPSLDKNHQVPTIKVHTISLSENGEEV
Assay: Binding affinity for human cloned Alpha-1A adrenergic receptor
Conditions: not given

SMILES | IC50 [µM]
CN(C)CCC1CC2c3ccccc3Cc3ccccc3N2O1 (configuration not stated) | 1.91

Biological target: 5-hydroxytryptamine receptor 2A (Homo sapiens, UniProt P28223)
Assay: biochemical
Assay type: cell-based, L929
Conditions: not given

Chain of 5-hydroxytryptamine receptor 2A (P28223 whole entry): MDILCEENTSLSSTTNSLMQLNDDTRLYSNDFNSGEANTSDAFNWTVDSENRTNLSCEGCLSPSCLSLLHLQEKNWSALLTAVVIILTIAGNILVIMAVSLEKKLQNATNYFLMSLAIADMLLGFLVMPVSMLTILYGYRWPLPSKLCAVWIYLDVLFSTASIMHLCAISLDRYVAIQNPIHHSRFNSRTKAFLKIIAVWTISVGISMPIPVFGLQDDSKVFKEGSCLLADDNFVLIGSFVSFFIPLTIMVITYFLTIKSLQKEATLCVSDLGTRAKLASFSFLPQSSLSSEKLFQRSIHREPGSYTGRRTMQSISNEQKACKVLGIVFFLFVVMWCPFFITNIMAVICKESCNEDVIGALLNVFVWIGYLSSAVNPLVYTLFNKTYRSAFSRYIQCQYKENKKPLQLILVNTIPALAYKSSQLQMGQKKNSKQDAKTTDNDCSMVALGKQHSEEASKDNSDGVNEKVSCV

SMILES | IC50 [µM]
CN(C)CCCCC1CC2c3ccccc3Cc3ccccc3N2O1 (configuration not stated) | > 1
c1ccc2c(c1)CN(CC1CC3c4ccccc4Cc4ccccc4N3O1)C2 (configuration not stated) | > 1
c1ccc2c(c1)Cc1ccccc1N1OC(CN3CCNCC3)CC21 (configuration not stated) | > 1
c1ccc(N2CCN(CC3CC4c5ccccc5Cc5ccccc5N4O3)CC2)cc1 (configuration not stated) | > 1

The remaining lines, values ahead:

IC50 [µM] | SMILES
> 1 | CN(C)CC1(C)CC2c3ccccc3Cc3ccccc3N2O1 (stereo in doubt; trans)
> 1 | CN(C)CC1CC2c3ccccc3Cc3ccccc3N2O1 (trans isomer)
0.141 | c1ccc2c(c1)Cc1ccccc1N1OC(CN3CCOCC3)CC21 (configuration not stated)
0.0912 | CN(C)CCC1CC2c3ccccc3Cc3ccccc3N2O1 (configuration not stated)
0.0575 | CN(C)CC1(C)CC2c3ccccc3Cc3ccccc3N2O1 (stereo in doubt; cis)
0.00389 | CN(C)CCCC1CC2c3ccccc3Cc3ccccc3N2O1 (configuration not stated)

Biological target: Histamine H1 receptor (Homo sapiens, UniProt P35367)
Assay: Binding affinity for human cloned Histamine H1 receptor expressed in CHO cells using [3H]pyrilamine as radioligand
Assay type: cell-based
Conditions: not given

Chain of Histamine H1 receptor (P35367 whole entry): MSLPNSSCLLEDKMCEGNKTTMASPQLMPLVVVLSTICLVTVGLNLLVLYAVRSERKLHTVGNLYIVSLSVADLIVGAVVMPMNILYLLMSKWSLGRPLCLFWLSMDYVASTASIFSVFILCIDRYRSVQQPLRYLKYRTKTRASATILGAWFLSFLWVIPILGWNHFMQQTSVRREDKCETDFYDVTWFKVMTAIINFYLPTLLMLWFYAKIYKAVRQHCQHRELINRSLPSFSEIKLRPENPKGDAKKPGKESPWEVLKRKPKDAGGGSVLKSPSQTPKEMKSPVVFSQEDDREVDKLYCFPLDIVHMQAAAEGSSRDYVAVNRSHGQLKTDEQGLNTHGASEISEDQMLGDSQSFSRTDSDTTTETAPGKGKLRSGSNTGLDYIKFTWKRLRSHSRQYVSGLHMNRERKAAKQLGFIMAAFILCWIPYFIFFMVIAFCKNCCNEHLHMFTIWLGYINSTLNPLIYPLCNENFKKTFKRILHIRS

SMILES | IC50 [µM]
CN(C)CCCCC1CC2c3ccccc3Cc3ccccc3N2O1 (configuration not stated) | > 1
c1ccc2c(c1)CN(CC1CC3c4ccccc4Cc4ccccc4N3O1)C2 (configuration not stated) | > 1
c1ccc2c(c1)Cc1ccccc1N1OC(CN3CCNCC3)CC21 (configuration not stated) | > 1
c1ccc(N2CCN(CC3CC4c5ccccc5Cc5ccccc5N4O3)CC2)cc1 (configuration not stated) | > 1

More lines, now with the values ahead:

IC50 [µM] | SMILES
0.0617 | CN(C)CC1(C)CC2c3ccccc3Cc3ccccc3N2O1 (stereo in doubt; trans)
> 1 | CN(C)CC1CC2c3ccccc3Cc3ccccc3N2O1 (trans isomer)
0.0263 | c1ccc2c(c1)Cc1ccccc1N1OC(CN3CCOCC3)CC21 (configuration not stated)
0.0832 | CN(C)CCC1CC2c3ccccc3Cc3ccccc3N2O1 (configuration not stated)
0.00166 | CN(C)CC1(C)CC2c3ccccc3Cc3ccccc3N2O1 (stereo in doubt; cis)
0.676 | CN(C)CCCC1CC2c3ccccc3Cc3ccccc3N2O1 (configuration not stated)

Biological target: D(2) dopamine receptor (Rattus norvegicus, UniProt P61169)
Assay: Binding affinity for rat Dopamine receptor D2
Conditions: not given

Chain of D(2) dopamine receptor (Rattus norvegicus, UniProt P61169) (P61169 whole entry): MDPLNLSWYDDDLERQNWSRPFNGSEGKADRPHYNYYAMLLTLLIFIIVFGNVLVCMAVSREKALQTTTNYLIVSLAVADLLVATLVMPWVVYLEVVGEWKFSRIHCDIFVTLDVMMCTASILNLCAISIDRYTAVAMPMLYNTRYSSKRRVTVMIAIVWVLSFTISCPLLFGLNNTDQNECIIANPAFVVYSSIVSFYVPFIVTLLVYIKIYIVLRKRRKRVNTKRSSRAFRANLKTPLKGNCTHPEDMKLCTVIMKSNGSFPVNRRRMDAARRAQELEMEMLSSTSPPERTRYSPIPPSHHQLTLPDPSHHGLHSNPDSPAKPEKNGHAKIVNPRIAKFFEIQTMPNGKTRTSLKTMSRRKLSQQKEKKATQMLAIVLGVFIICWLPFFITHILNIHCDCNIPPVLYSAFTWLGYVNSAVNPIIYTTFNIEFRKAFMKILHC

SMILES | IC50 [µM]
CN(C)CCC1CC2c3ccccc3Cc3ccccc3N2O1 (configuration not stated) | > 1

System: Rattus norvegicus
Assay: In vivo activity in mCPP challenge test were performed in male Wistar rats by subcutaneous administration
Assay type: functional
Conditions: not given

SMILES | ED50 [mg/kg]
CN(C)CC1CC2c3ccccc3Cc3ccccc3N2O1 (trans isomer) | >2.5

Same assay, conditions: Rattus norvegicus, sc; read-out: ED50

SMILES | ED50 [mg/kg]
CN(C)CC1(C)CC2c3ccccc3Cc3ccccc3N2O1 (stereo in doubt; trans) | > 2.5
c1ccc2c(c1)Cc1ccccc1N1OC(CN3CCOCC3)CC21 (configuration not stated) | 2.5
CN1CCN2c3ccccc3Cc3ccccc3C2C1 (configuration not stated) [MIANSERIN] | 0.16
CN(C)CCC1CC2c3ccccc3Cc3ccccc3N2O1 (configuration not stated) | 2.5

Biological target: T4, Alpha-2A adrenergic receptor (Homo sapiens, UniProt P08913)
T4 sequence (P08913 whole entry): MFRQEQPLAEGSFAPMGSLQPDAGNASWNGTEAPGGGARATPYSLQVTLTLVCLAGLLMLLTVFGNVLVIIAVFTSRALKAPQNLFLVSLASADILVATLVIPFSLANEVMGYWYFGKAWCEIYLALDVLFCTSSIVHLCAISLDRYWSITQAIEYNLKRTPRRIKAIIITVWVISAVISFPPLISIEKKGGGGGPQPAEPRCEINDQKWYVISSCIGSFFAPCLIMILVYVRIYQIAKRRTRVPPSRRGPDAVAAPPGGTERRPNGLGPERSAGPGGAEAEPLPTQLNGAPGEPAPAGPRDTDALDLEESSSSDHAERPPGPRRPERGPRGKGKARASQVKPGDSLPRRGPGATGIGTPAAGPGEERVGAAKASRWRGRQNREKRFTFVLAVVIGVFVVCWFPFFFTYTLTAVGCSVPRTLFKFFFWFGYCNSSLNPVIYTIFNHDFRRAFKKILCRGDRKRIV
Assay: Binding affinity for human cloned Alpha-2A adrenergic receptor
Conditions: not given

SMILES | IC50 [µM]
CN(C)CCC1CC2c3ccccc3Cc3ccccc3N2O1 (configuration not stated) | > 1

Biological target: T5, 5-hydroxytryptamine receptor 2C (Rattus norvegicus) (UniProt P08909)
T5 sequence (whole entry): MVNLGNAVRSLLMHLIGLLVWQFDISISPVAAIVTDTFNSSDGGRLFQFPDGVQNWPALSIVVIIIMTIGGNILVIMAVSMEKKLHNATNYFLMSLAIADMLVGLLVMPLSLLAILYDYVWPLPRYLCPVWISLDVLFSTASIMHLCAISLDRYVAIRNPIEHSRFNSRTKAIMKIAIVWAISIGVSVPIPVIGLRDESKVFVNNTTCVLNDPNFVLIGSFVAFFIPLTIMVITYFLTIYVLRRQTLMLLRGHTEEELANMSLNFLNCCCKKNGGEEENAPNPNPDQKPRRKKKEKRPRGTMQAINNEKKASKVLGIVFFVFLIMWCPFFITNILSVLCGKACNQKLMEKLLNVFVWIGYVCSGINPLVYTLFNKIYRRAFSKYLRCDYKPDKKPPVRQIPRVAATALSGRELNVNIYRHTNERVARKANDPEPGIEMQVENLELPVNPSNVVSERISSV
Assay: In vivo activity in rat mCPP challenge test following p.o. administration.
Assay type: functional, organism-based
Conditions: not given

SMILES | ED50 [mg/kg]
CN(C)CCCCC1CC2c3ccccc3Cc3ccccc3N2O1 (configuration not stated) | > 2.5
CN1CCN2c3ccccc3Cc3ccccc3C2C1 (configuration not stated) [MIANSERIN] | 2.5
c1ccc2c(c1)CN(CC1CC3c4ccccc4Cc4ccccc4N3O1)C2 (configuration not stated) | > 2.5
c1ccc2c(c1)Cc1ccccc1N1OC(CN3CCNCC3)CC21 (configuration not stated) | > 2.5
CN(C)CCC1CC2c3ccccc3Cc3ccccc3N2O1 (configuration not stated) | 2.5
CN(C)CCCC1CC2c3ccccc3Cc3ccccc3N2O1 (configuration not stated) | > 2.5

Biological target: D(3) dopamine receptor (Homo sapiens, UniProt P35462)
Assay: Binding affinity for human cloned Dopamine receptor D3
Conditions: not given

Chain of D(3) dopamine receptor (P35462 whole entry): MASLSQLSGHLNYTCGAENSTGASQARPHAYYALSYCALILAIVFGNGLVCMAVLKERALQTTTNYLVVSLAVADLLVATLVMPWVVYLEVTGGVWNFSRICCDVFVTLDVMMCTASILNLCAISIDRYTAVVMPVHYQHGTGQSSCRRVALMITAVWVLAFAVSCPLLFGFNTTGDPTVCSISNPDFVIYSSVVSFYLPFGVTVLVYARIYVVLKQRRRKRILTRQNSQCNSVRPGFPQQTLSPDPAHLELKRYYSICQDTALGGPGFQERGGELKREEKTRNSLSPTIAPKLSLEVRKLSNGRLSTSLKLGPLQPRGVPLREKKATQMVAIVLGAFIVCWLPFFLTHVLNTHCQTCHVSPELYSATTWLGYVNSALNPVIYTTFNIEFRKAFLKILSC

SMILES | IC50 [µM]
CN(C)CCC1CC2c3ccccc3Cc3ccccc3N2O1 (configuration not stated) | > 1

Biological target: T6, 5-hydroxytryptamine receptor 2C (Homo sapiens, UniProt P28335)
T6 sequence (P28335 whole entry): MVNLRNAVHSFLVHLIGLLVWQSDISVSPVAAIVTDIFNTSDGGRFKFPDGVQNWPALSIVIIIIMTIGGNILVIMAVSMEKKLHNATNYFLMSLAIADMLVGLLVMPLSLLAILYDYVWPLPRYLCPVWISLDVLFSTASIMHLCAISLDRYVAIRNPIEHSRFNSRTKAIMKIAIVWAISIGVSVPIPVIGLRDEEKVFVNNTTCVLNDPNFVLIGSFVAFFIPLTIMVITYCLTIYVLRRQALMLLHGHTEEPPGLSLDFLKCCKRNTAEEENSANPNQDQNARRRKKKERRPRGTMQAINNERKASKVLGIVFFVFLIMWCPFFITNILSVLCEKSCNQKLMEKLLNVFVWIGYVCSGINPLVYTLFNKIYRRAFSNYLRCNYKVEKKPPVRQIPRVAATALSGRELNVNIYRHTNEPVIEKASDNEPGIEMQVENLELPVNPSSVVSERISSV
Assay: Binding affinity for human cloned 5-hydroxytryptamine 2C receptor expressed in CHO cells using [3H]mesulergine as radioligand
Assay type: cell-based
Conditions: not given

SMILES | IC50 [µM]
CN(C)CCCCC1CC2c3ccccc3Cc3ccccc3N2O1 (configuration not stated) | > 1
c1ccc2c(c1)CN(CC1CC3c4ccccc4Cc4ccccc4N3O1)C2 (configuration not stated) | > 1
c1ccc2c(c1)Cc1ccccc1N1OC(CN3CCNCC3)CC21 (configuration not stated) | > 1
c1ccc(N2CCN(CC3CC4c5ccccc5Cc5ccccc5N4O3)CC2)cc1 (configuration not stated) | > 1

The remaining lines, values ahead:

IC50 [µM] | SMILES
0.933 | CN(C)CC1(C)CC2c3ccccc3Cc3ccccc3N2O1 (stereo in doubt; trans)
> 1 | CN(C)CC1CC2c3ccccc3Cc3ccccc3N2O1 (trans isomer)
> 1 | c1ccc2c(c1)Cc1ccccc1N1OC(CN3CCOCC3)CC21 (configuration not stated)
0.0372 | CN(C)CCC1CC2c3ccccc3Cc3ccccc3N2O1 (configuration not stated)
0.0138 | CN(C)CC1(C)CC2c3ccccc3Cc3ccccc3N2O1 (stereo in doubt; cis)
0.0186 | CN(C)CCCC1CC2c3ccccc3Cc3ccccc3N2O1 (configuration not stated)
